The text below walks through data of patent US20090304632A1, “HETEROCYCLIC NF-kB INHIBITORS” (priority 2007, published 2009).

One data set concerns NF-κB. Put plainly: NF-κB inflammation assay (PRINCESS NINA Instant Assay, A549-NF-κB-SEAP reporter cells). The note with it: for EC50: A549-NF-κB-SEAP reporter cells stimulated with 2 ng/ml TNF-α, read-out: Biological activity (EC50, NF-κB inflammation assay). The data set is classed as cell-based.
The test system of a further data set is mouse splenocytes. Put plainly: Cytokine production of mouse splenocytes stimulated with CD3/CD28. The format is cell-based. The note with it: 10 μM.
The test system of the next data set is human PBMCs. Put plainly: Cytokine production of human PBMCs. The format is cell-based. The note with it: for EC50: Homo sapiens, PBMC, 48 h, 48 hours.
The subject of data set [1] is bird flu virus H5N1 (strain MB1). The format is in vivo, mouse. Conditions: H5N1 infected mice, daily 15 mg/kg i.p. for two days.
Data set [2] relates to Influenza A virus H5N1-strain. The data set is classed as cell-based. The note with it: 5 μM, infected A549 cells.
Data set [3] concerns Fowl Plaque Virus, H7N7-strain. The data set is classed as cell-based, Influenza A virus. Conditions: 5 μM, infected A549 cells.
In a further data set the test system is A549 cells. Put plainly: Determination of cell viability (MTT staining). The format is cell-based. As for the experimental part:
Cell lines (e.g. A549) incubated with compounds of the invention were assessed on cell viability by means of MTT staining.

For the next data set, the system named is influenza strain H7N7. The data set is classed as in vivo, mouse.
Another data set has as its system influenza strain H5N1. The format is in vivo, mouse.
A further data set concerns hematological cell lines. Put plainly: In-vitro antitumor activity in human tumor cell lines (monolayer assay, propidium iodide). The format is cell-based.
For the next data set, the system named is human lymphocyte. Put plainly: T-lymphocyte proliferation assay (stimulated PBMC, BrdU). The format is cell-based.
In the next data set the test system is mouse T-cell. Put plainly: Mouse T-cell proliferation. The format is cell-based.
A further data set concerns influenza virus. Put plainly: Antiviral combination with interferon-α.

Structures are written as SMILES. Like-named read-outs stand apart in the source and are kept apart here. A value given as a limit tells only on which side of the number the result lay.

Turning to `N#Cc1ccnc(N2CCC(c3nc(C(=O)Nc4nc5ccc(C(=O)c6ccccc6)cc5[nH]4)cs3)CC2)c1` [Compound 3, N-(6-benzoyl-1H-benzo[d]imidazol-2-yl)-2-(1-(4-cyanopyridin-2-yl)piperidin-4-yl)thiazole-4-carboxamide], in the data set with NF-κB, the EC50 fell in the range of 30 to 100 µM.

`COC(=O)c1cn2ncnc(N3CCC(c4nc(C(=O)Nc5nc6cc(C(=O)c7ccccc7)ccc6[nH]5)cs4)CC3)c2c1C` [Compound 8, Methyl 4-(4-(4-(5-benzoyl-1H-benzo[d]imidazol-2-ylcarbamoyl)thiazol-2-yl)piperidin-1-yl)-5-methylpyrrolo[1,2-f][1,2,4]triazine-6-carboxylate]: the EC50 in the data set with NF-κB is 30 to 100 µM.

In the case of `COc1nc(OC)nc(N2CCC(c3nc(C(=O)Nc4nc5cc(C(=O)c6ccccc6)ccc5[nH]4)cs3)CC2)n1` [Compound 13, N-(5-benzoyl-1H-benzo[d]imidazol-2-yl)-2-(1-(4,6-dimethoxy-1,3,5-triazin-2-yl)piperidin-4-yl)thiazole-4-carboxamide], the EC50 with NF-κB was below 10 µM.

With `O=C(c1ccccc1)c1ccc2[nH]c(NC(=O)c3csc(C4CCN(C(=O)c5ccccc5OC(F)(F)F)CC4)n3)nc2c1` [Compound 16, N-(5-benzoyl-1H-benzo[d]imidazol-2-yl)-2-(1-(2-(trifluoromethoxy)benzoyl)piperidin-4-yl)thiazole-4-carboxamide], the half-maximal effective concentration (EC50) with NF-κB was below 10 µM.

For `Cc1cc2nnc(C(=O)N3CCC(c4nc(C(=O)Nc5nc6cc(C(=O)c7ccccc7)ccc6[nH]5)cs4)CC3)c(C)n2n1` [Compound 17, N-(5-benzoyl-1H-benzo[d]imidazol-2-yl)-2-(1-(4,7-dimethylpyrazolo[5,1-c][1,2,4]triazine-3-carbonyl)piperidin-4-yl)thiazole-4-carboxamide], the concentration giving a half-maximal response (EC50) in the data set with NF-κB is below 10 µM.

Take `COc1cc(N2CCC(c3nc(C(=O)Nc4nc5ccc(C(=O)c6ccccc6)cc5[nH]4)cs3)CC2)nc(OC)n1` [Compound 1, N-(6-benzoyl-1H-benzo[d]imidazol-2-yl)-2-(1-(2,6-dimethoxypyrimidin-4-yl)piperidin-4-yl)thiazole-4-carboxamide]: in the data set on NF-κB, the EC50 was below 10 µM.

`O=C(c1ccccc1)c1ccc2nc(NC(=O)c3csc(C4CCN(C(=O)Nc5cc(Cl)nc(Cl)c5)CC4)n3)[nH]c2c1` [Compound 12, N-(6-benzoyl-1H-benzo[d]imidazol-2-yl)-2-(1-(2,6-dichloropyridin-4-ylcarbamoyl)piperidin-4-yl)thiazole-4-carboxamide]: the EC50 in the data set on NF-κB is below 10 µM.

As for `O=C(c1ccccc1)c1ccc2nc(NC(=O)c3csc(C4CCN(c5ncnc6nc[nH]c56)CC4)n3)[nH]c2c1` [Compound 2, 2-(1-(7H-purin-6-yl)piperidin-4-yl)-N-(6-benzoyl-1H-benzo[d]imidazol-2-yl)thiazole-4-carboxamide], the EC50 with NF-κB was below 10 µM.

For `COc1cc2ncnc(N3CCC(c4nc(C(=O)Nc5nc6cc(C(=O)c7ccccc7)ccc6[nH]5)cs4)CC3)c2cc1OC` [Compound 14, N-(5-benzoyl-1H-benzo[d]imidazol-2-yl)-2-(1-(6,7-dimethoxyquinazolin-4-yl)piperidin-4-yl)thiazole-4-carboxamide], in the data set on NF-κB, the EC50 was below 10 µM.

Regarding `Cc1cc2nccc(N3CCC(c4nc(C(=O)Nc5nc6cc(C(=O)c7ccccc7)ccc6[nH]5)cs4)CC3)n2n1` [Compound 9, N-(5-benzoyl-1H-benzo[d]imidazol-2-yl)-2-(1-(2-methylpyrazolo[1,5-a]pyrimidin-7-yl)piperidin-4-yl)thiazole-4-carboxamide], in the data set with NF-κB, the EC50 was below 10 µM.

Regarding `O=C(c1ccccc1)c1ccc2nc(NC(=O)c3csc(C4CCN(c5ncnc6ccsc56)CC4)n3)[nH]c2c1` [Compound 4, N-(6-benzoyl-1H-benzo[d]imidazol-2-yl)-2-(1-(thieno[3,2-d]pyrimidin-4-yl)piperidin-4-yl)thiazole-4-carboxamide], the half-maximal effective concentration (EC50) in the data set with NF-κB is below 10 µM; with human PBMCs (LPS stimulation, read-out: IL-6 secretion EC50), 0.6 µM; with human PBMCs (LPS stimulation, read-out: TNF-alpha secretion EC50), 12.6 µM; with human PBMCs (PHA stimulation, read-out: IL-6 secretion EC50), 0.2 µM; in the data set with human PBMCs (PHA stimulation, read-out: INF-gamma secretion EC50), 9 µM; with human PBMCs (PHA stimulation, read-out: TNF-alpha secretion EC50) it was 7.9 µM. The IC50 in the data set with NF-κB (read-out: NF-κB reporter gene assay IC50) is around 0.1 µM. Moreover, in the data set on mouse splenocytes (after 24 hours), the “cytokine production, all measured cytokines” value is recorded as “completely inhibited”. Besides, the “reduction of secretion of most cytokines” value in the data set on mouse splenocytes (after 48 hours) was “more than 90 % of the DMSO control”. Moreover, the “secretion of cytokines like IL-1beta, IL-6, IL-8, IFN-gamma, and TNF-alpha” value with human PBMCs (stimulated with CL075) is given as “blocked”. The “secretion of cytokines like IL-6 and IL-8” value in the data set on human PBMCs (stimulated with IL-1beta) and in the data set on human PBMCs (stimulated with ODN1668) was “blocked” each time. Further, the “secretion of cytokines like IL-8, IL-1beta, INF-gamma, TNF-alpha, IL-10, and IL-6” value in the data set on human PBMCs (stimulated with LPS) is “blocked”. In the data set with human PBMCs (stimulated with ODN2216), the “secretion of cytokines like IL-8 and IFN-gamma” value was “blocked”. In the data set on human PBMCs (stimulated with PHA), the “secretion of cytokines like IL-1beta, IL-6, IL-2, IL-8, IL-10, IL-12p70, INF-gamma, and TNF-alpha” value is “blocked”. Also, in the data set with human PBMCs (stimulated with TNF-alpha), the “secretion of cytokines like IL-1beta, IL-6, and IL-8” value was “blocked”. Besides, in [1], the “expression of H5N1 specific mRNA in the lung” value is listed as “reduced expression”. In [1], the “transcription of IL-6 and IP-10 genes in the lung” value is “reduced transcription”. The “reduction of virus titer” value in [2] is on record as 4 log units; in data set [3], 5 log units. The cytotoxicity result in the data set on A549 cells is “not cytotoxic”. The “cell viability versus DMSO treated and untreated cells” value in the data set on A549 cells (5 μM, absence of virus, MTT staining, 96 hours) is given as “the same”. The “protection of infected mice (survival)” value in the data set with influenza strain H7N7 (LD50 H7N7, 15 mg/kg daily i.p. day 0 to day 8, end day 14, p<0.05) is reported as “complete protection”; in the data set on influenza strain H7N7 (LD50 H7N7, daily i.v. day 0 to day 4, doses equal or higher 5 mg/kg, end day 14, p<0.05), “significant protection”; in the data set with influenza strain H5N1 (LD50 H5N1, treatment from day 4 to day 10, 7.5 mg/kg b.id. and 15 mg/kg daily i.p., end day 14, p=0.05), “significant protection”; in the data set on influenza strain H5N1 (LD50 H5N1, two times 7.5 mg/kg daily i.p. day 0 to day 10, end day 14, p<0.05), “significant protection”. Also, in the data set with hematological cell lines (cell lines derived from multiple myelomas), the “multiple myeloma derived cell lines above average sensitive” value is given as 4 out of 5. Also, the “score of tumor sensitivity” value with hematological cell lines (panel of hematological cell lines) is given as “excellent score of tumor sensitivity”. Moreover, in the data set on human lymphocyte, the human lymphocyte proliferation result is on record as “inhibits”. Also, in the data set on mouse T-cell, the “mouse T-cell proliferation” value was “inhibits”. For the same molecule, the “synergism in anti-viral efficacy and toxicity antagonism of combination with INFα versus IFNα combination with ribavirin” value in the data set with influenza virus (combination with INFα) is “stronger synergism”. For the same molecule, the “antiviral effects in combination with INF-α” value in the data set with influenza virus (combination with interferon-α) is recorded as “synergistic antiviral effects”.

Take `COc1cc2c(N3CCC(c4nc(C(=O)Nc5nc6cc(C(=O)c7ccccc7)ccc6[nH]5)cs4)CC3)ncnc2cc1OCCCN1CCN(C)CC1` [Compound 6, N-(5-benzoyl-1H-benzo[d]imidazol-2-yl)-2-(1-(6-methoxy-7-(3-(4-methylpiperazin-1-yl)propoxy)quinazolin-4-yl)piperidin-4-yl)thiazole-4-carboxamide]: the EC50 in the data set on NF-κB is below 10 µM.

Consider `O=C(c1ccccc1)c1ccc2[nH]c(NC(=O)c3csc(C4CCN(c5ccncc5[N+](=O)[O-])CC4)n3)nc2c1` [Compound 15, N-(5-benzoyl-1H-benzo[d]imidazol-2-yl)-2-(1-(3-nitropyridin-4-yl)piperidin-4-yl)thiazole-4-carboxamide], for which the EC50 with NF-κB is below 10 µM.

On to `O=C(c1ccccc1)c1ccc2[nH]c(NC(=O)c3csc(C4CCN(c5ccnc6ncnn56)CC4)n3)nc2c1` [Compound 10, 2-(1-([1,2,4]triazolo[1,5-a]pyrimidin-7-yl)piperidin-4-yl)-N-(5-benzoyl-1H-benzo[d]imidazol-2-yl)thiazole-4-carboxamide], for which the EC50 in the data set on NF-κB was below 10 µM.

Regarding `O=CN1CCC(c2nc(C(=O)Nc3nc4cc(C(=O)c5ccccc5)ccc4[nH]3)cs2)CC1` [Compound 7, N-(5-benzoyl-1H-benzo[d]imidazol-2-yl)-2-(1-formylpiperidin-4-yl)thiazole-4-carboxamide], in the data set with NF-κB, the EC50 is below 10 µM.

Consider `O=C(c1ccccc1)c1ccc2nc(NC(=O)c3csc(C4CCN(c5cc(C(F)(F)F)ncn5)CC4)n3)[nH]c2c1` [Compound 5, N-(6-benzoyl-1H-benzo[d]imidazol-2-yl)-2-(1-(6-(trifluoromethyl)pyrimidin-4-yl)piperidin-4-yl)thiazole-4-carboxamide], for which, in the data set with NF-κB, the EC50 fell in the range of 10 to 30 µM.

For `COC(=O)c1nc2nccc(N3CCC(c4nc(C(=O)Nc5nc6cc(C(=O)c7ccccc7)ccc6[nH]5)cs4)CC3)n2n1` [Compound 11, Methyl 7-(4-(4-(5-benzoyl-1H-benzo[d]imidazol-2-ylcarbamoyl)thiazol-2-yl)piperidin-1-yl)-[1,2,4]triazolo[1,5-a]pyrimidine-2-carboxylate], in the data set with NF-κB, the concentration for a half-maximal effect (EC50) was below 10 µM.

As a reminder, the EC50 is the midpoint of the concentration-response curve. What is called IC50 is the concentration that inhibits the measured activity by half.
